Measurements taken from article PMC8938680 (2022).

Tested on: E. coli thiM TPP riboswitch (ITC construct) (RNA, riboswitch) GGCAGUACUCGGGGUGCCCUUCUGCGUGAAGGCUGAGAAAUACCCGUAUCACCUGAUCUGGAUAAUGCCAGCGUAGGGAAGUGCUG
Assay: ITC
Conditions: 1 mM MgCl2, 200 mM potassium acetate; 100 mM HEPES-Na pH 8.0, 25 °C

Row | KT | KL | Compound
1 | 11 µM |  | Cc1ncc(C[n+]2csc(CCO)c2C)c(N)n1
2 |  | 19 nM | Cc1ncc(C[n+]2csc(CCOP(=O)(O)CP(=O)(O)O)c2C)c(N)n1
